The compounds below were run against T1, SARS2 protease (Severe acute respiratory syndrome coronavirus 2, UniProt P0DTD1) (assay: SARS-CoV-2 protease inhibition assay (SARS2 FRET protease assay)). Conditions: IC50 (μM), SARS2 protease 30 nM, peptide substrate 1.3 μM, 120 minutes at 37° C., compounds 20 μM to 0.075 nM.
T1 construct: SARS2 protease was added to a final concentration of 30 nM
Type: biochemical

Question: How did the IC50 turn out when `CCNC(=O)C(=O)[C@H](C[C@@H]1CCNC1=O)NC(=O)[C@H](Cc1ccccc1)NC(=O)OC(c1ccccc1)C(F)(F)c1cccc(Cl)c1` (stereo partly drawn) [Compound A240, 2-(3-chlorophenyl)-2,2-difluoro-1-phenylethyl ((S)-1-(((S)-4-(ethylamino)-3,4-dioxo-1-((S)-2-oxopyrrolidin-3-yl)butan-2-yl)amino)-1-oxo-3-phenylpropan-2-yl)carbamate] was run?
Answer: 0.638 µM

Question: Which IC50 does the source give for `CCCC[C@H](NC(=O)OC(c1ccccc1)C(F)(F)c1cccc(Cl)c1)C(=O)N[C@H](C=O)CC1CC(C)(C)NC1=O` (stereo partly shown) [Compound A81] here?
Answer: 0.47 µM

Question: For `CCCC[C@H](NC(=O)OC(c1ccccc1)C1(c2cccc(Cl)c2)CC1)C(=O)N[C@@H](C[C@@H]1CCNC1=O)C(=O)C(=O)NC1CC1` (stereo partly shown) [Compound A136], which IC50 is on record?
Answer: 0.083 µM

Question: With `CCNC(=O)C(=O)[C@H](C[C@@H]1CCNC1=O)NC(=O)[C@@H](CC1(C)CCC1)NC(=O)O[C@@H](c1ccccc1)C(F)(F)c1cccc(Cl)c1` [Compound A324] as the compound, how does the IC50 read?
Answer: 0.0003 µM

Question: For `CCCC[C@H](NC(=O)O[C@H](c1ccccc1)C(C)(C)c1cccc(Cl)c1)C(=O)N[C@@H](C[C@@H]1CCNC1=O)C(=O)C(=O)NC1CC1` [Compound A178], which IC50 is on record?
Answer: 1.04 µM

Question: For `CCCC[C@H](NC(=O)OC(c1ccccc1)C(F)(F)c1cccc(Cl)c1)C(=O)N[C@@H](C[C@@H]1CCNC1=O)C(=O)C(=O)O` (stereo partly drawn) [Compound A250, (3S)-3-((2S)-2-(((2-(3-chlorophenyl)-2,2-difluoro-1-phenylethoxy)carbonyl)amino)hexanamido)-2-oxo-4-((S)-2-oxopyrrolidin-3-yl)butanoic acid], which IC50 is on record?
Answer: 0.036 µM

Question: How did the IC50 turn out when `CCCC[C@H](NC(=O)O[C@@H](c1ccccc1)C(F)(F)c1cccc(Cl)c1)C(=O)N[C@H](C=O)C[C@@H]1CCCNC1=O` [Compound A150] was run?
Answer: < 0.0001 µM

Question: Which IC50 does the source give for `CCCC[C@H](NC(=O)O[C@@H](c1ccccc1)C(F)(F)c1cccc(F)c1)C(=O)N[C@@H](C[C@@H]1CCNC1=O)C(=O)C(=O)NCC` [Compound A283, (S)-2,2-difluoro-2-(3-fluorophenyl)-1-phenylethyl ((S)-1-(((S)-4-(ethylamino)-3,4-dioxo-1-((S)-2-oxopyrrolidin-3-yl)butan-2-yl)amino)-1-oxohexan-2-yl)carbamate] here?
Answer: 0.122 µM

Question: With `CCNC(=O)C(=O)[C@H](C[C@@H]1CCNC1=O)NC(=O)[C@H](CC1CC1)NC(=O)OC(c1ccccc1)C(F)(F)c1cccc(Cl)c1` (stereo partly shown) [Compound A131] as the compound, how does the IC50 read?
Answer: 0.0002 µM

Question: `CCCC[C@H](NC(=O)OC(c1ccc(F)cc1)C(F)(F)c1cccc(Cl)c1)C(=O)N[C@@H](C[C@@H]1CCNC1=O)C(=O)C(=O)NC1CC1` (stereo partly shown) [Compound A70] was tested. Which IC50 did it give?
Answer: 0.028 µM

Question: For `CCNC(=O)C(=O)[C@H](C[C@@H]1CCNC1=O)NC(=O)[C@H](Cc1ccccc1)NC(=O)OC(C1CCCCC1)C(F)(F)c1cccc(Cl)c1` (stereo partly drawn) [Compound A255, 2-(3-Chlorophenyl)-1-cyclohexyl-2,2-difluoroethyl ((S)-1-(((S)-4-(ethylamino)-3,4-dioxo-1-((S)-2-oxopyrrolidin-3-yl)butan-2-yl)amino)-1-oxo-3-phenylpropan-2-yl)carbamate], which IC50 is on record?
Answer: 0.208 µM

Question: `CC[C@@H](C)C[C@H](NC(=O)O[C@@H](c1ccccc1)C(F)(F)c1cccc(Cl)c1)C(=O)N[C@@H](C[C@@H]1CCNC1=O)C(=O)C(=O)NC1CC1` [Compound A312] was tested. Which IC50 did it give?
Answer: 0.64 µM

Question: How did the IC50 turn out when `CCCC(=O)OC([C@H](C[C@@H]1CCNC1=O)NC(=O)[C@H](CC1CCCCC1)NC(=O)OC(c1ccccc1)C(F)(F)c1cccc(Cl)c1)S(=O)(=O)O` (stereo partly shown) [Compound A113] was run?
Answer: 0.241 µM

Question: How did the IC50 turn out when `CCCC[C@H](NC(=O)OC(c1ccccc1)C(F)(F)c1cccc(Cl)c1)C(=O)NC(CC1CC(C)(C)NC1=O)C(=O)C(=O)NC1CC1` (stereo partly shown) [Compound A73] was run?
Answer: 1.39 µM

Question: Which IC50 does the source give for `CC(C)C[C@H](NC(=O)OC(c1ccc(Cl)cc1)C1(c2cccc(Cl)c2)CCN(C(=O)OC(C)(C)C)CC1)C(=O)N[C@@H](C[C@@H]1CCNC1=O)C(=O)C(=O)NC1CC1` (stereo partly shown) [Compound A88] here?
Answer: 0.63 µM

Question: With `O=C[C@H](C[C@@H]1CCNC1=O)NC(=O)[C@H](CC1CCCC1)NC(=O)OC(c1ccccc1)C(F)(F)c1cccc(Cl)c1` (stereo partly drawn) [Compound A93, 2-(3-chlorophenyl)-2,2-difluoro-1-phenylethyl ((S)-3-cyclopentyl-1-oxo-1-(((S)-1-oxo-3-((S)-2-oxopyrrolidin-3-yl)propan-2-yl)amino)propan-2-yl)carbamate] as the compound, how does the IC50 read?
Answer: 0.0003 µM

Question: Which IC50 does the source give for `CCNC(=O)C(=O)[C@H](C[C@@H]1CCNC1=O)NC(=O)[C@@H](CC1(CC)CCC1)NC(=O)O[C@@H](c1ccccc1)C(F)(F)c1cccc(Cl)c1` [Compound A320] here?
Answer: 0.0001 µM

Question: For `CC(C)(c1cccc(F)c1)C(OC(=O)N[C@@H](CC1CCCCC1)C(=O)N[C@H](C=O)C[C@@H]1CCNC1=O)c1ccccc1` (stereo partly shown) [Compound A34], which IC50 is on record?
Answer: 0.0001 µM

Question: For `CCCC[C@H](NC(=O)OC(c1ccccc1)C(F)(F)c1cccc(Cl)c1)C(=O)N[C@H](C=O)Cc1ccc[nH]c1=O` (stereo partly drawn) [Compound A292, 2-(3-chlorophenyl)-2,2-difluoro-1-phenylethyl ((S)-1-oxo-1-(((S)-1-oxo-3-(2-oxo-1,2-dihydropyridin-3-yl)propan-2-yl)amino)hexan-2-yl)carbamate], which IC50 is on record?
Answer: 0.159 µM

Question: `CC(C)C[C@H](NC(=O)OC(C(C)C)C(F)(F)c1cccc(-c2ccccc2)c1)C(=O)N[C@H](C=O)C[C@@H]1CCNC1=O` (stereo partly drawn) [Compound A222, 1-([1,1′-Biphenyl]-3-yl)-1,1-difluoro-3-methylbutan-2-yl ((S)-4-methyl-1-oxo-1-(((S)-1-oxo-3-((S)-2-oxopyrrolidin-3-yl)propan-2-yl)amino)pentan-2-yl)carbamate] was tested. Which IC50 did it give?
Answer: 0.003 µM

Question: `CCCC[C@H](NC(=O)O[C@H](c1cccc(F)c1)C(F)(F)c1cccc(F)c1)C(=O)N[C@H](C=O)C[C@@H]1CCNC1=O` [Compound A201] was tested. Which IC50 did it give?
Answer: 0.001 µM

Question: With `CC(C)C[C@H](NC(=O)O[C@@H](c1cccc(Cl)c1)C1(c2cccc(Cl)c2)CC1)C(=O)N[C@@H](C[C@@H]1CCNC1=O)C(=O)C(=O)NC1CC1` [Compound A31] as the compound, how does the IC50 read?
Answer: 0.007 µM

Question: With `CCNC(=O)C(=O)[C@H](C[C@@H]1CCNC1=O)NC(=O)[C@H](CC1(CC)CCC1)NC(=O)O[C@@H](c1ccccc1)C(F)(F)c1cccc(Cl)c1` [Compound A323] as the compound, how does the IC50 read?
Answer: 3.84 µM

Question: With `CCCC[C@H](NC(=O)OC(c1ccccc1)C(F)(F)c1cccc(Cl)c1)C(=O)N[C@@H](C[C@@H]1CCNC1=O)C(=O)C(=O)NCC` (stereo partly shown) [Compound A138] as the compound, how does the IC50 read?
Answer: 0.028 µM

Question: `CC(C)C[C@H](NC(=O)O[C@@H](c1cccc(Cl)c1)C(C)(C)c1cccc(Cl)c1)C(=O)N[C@@H](C[C@@H]1CCNC1=O)C(=O)C(=O)NC1CC1` [Compound A142] was tested. Which IC50 did it give?
Answer: 0.032 µM

Question: With `CCC(CC)(c1cccc(Cl)c1)C(OC(=O)N[C@@H](CC(C)C)C(=O)N[C@@H](C[C@@H]1CCNC1=O)C(=O)C(=O)NC1CC1)c1ccc(F)cc1` (stereo partly shown) [Compound A14] as the compound, how does the IC50 read?
Answer: 0.09 µM

Question: For `CC(C)C[C@H](NC(=O)O[C@@H](c1ccccc1)C(F)(F)c1cccc(C(C)C)c1)C(=O)N[C@@H](C[C@@H]1CCNC1=O)C(=O)C(=O)NC1CC1` [Compound A193], which IC50 is on record?
Answer: 0.135 µM

Question: With `CCCCCOC(=O)N[C@@H](CC(C)C)C(=O)N[C@H](C=O)C[C@@H]1CCNC1=O` [Compound A13] as the compound, how does the IC50 read?
Answer: 0.08 µM

Question: With `CC(C)C[C@H](NC(=O)O[C@H](c1cccc(Cl)c1)C(C)(C)c1cccc(Cl)c1)C(=O)N[C@H](C=O)C[C@@H]1CCNC1=O` [Compound A140] as the compound, how does the IC50 read?
Answer: 0.045 µM

Question: With `CC(C)(c1cccc(Cl)c1)C(OC(=O)N[C@@H](Cc1ccc(Cl)c(Cl)c1)C(=O)N[C@H](C=O)C[C@@H]1CCNC1=O)c1ccccc1` (stereo partly drawn) [Compound A279, 2-(3-chlorophenyl)-2-methyl-1-phenylpropyl ((S)-3-(3,4-dichlorophenyl)-1-oxo-1-(((S)-1-oxo-3-((S)-2-oxopyrrolidin-3-yl)propan-2-yl)amino)propan-2-yl)carbamate] as the compound, how does the IC50 read?
Answer: 0.423 µM

Question: With `O=C[C@H](C[C@@H]1CCNC1=O)NC(=O)[C@H](Cc1cccc(Cl)c1)NC(=O)OC(c1ccccc1)C(F)(F)c1cccc(Cl)c1` (stereo partly shown) [Compound A286] as the compound, how does the IC50 read?
Answer: 0.0001 µM

Question: For `CCCC[C@H](NC(=O)OC(c1ccccc1)C(F)(F)c1cccc(Cl)c1)C(=O)N[C@@H](Cc1ccc[nH]c1=O)C(=O)C(=O)NC1CC1` (stereo partly drawn) [Compound A285, 2-(3-chlorophenyl)-2,2-difluoro-1-phenylethyl ((S)-1-(((S)-4-(cyclopropylamino)-3,4-dioxo-1-(2-oxo-1,2-dihydropyridin-3-yl)butan-2-yl)amino)-1-oxohexan-2-yl)carbamate], which IC50 is on record?
Answer: 1.3 µM

Question: How did the IC50 turn out when `CCCCCOC(=O)N[C@@H](CC(C)C)C(=O)N[C@@H](C[C@@H]1CCNC1=O)C(=O)C(=O)NC1CCN(C)CC1` [Compound A8] was run?
Answer: 15 µM

Question: How did the IC50 turn out when `CC(C)C[C@H](NC(=O)O[C@H](c1cccc(F)c1)C(C)(C)c1cccc(Cl)c1)C(=O)N[C@@H](C[C@@H]1CCNC1=O)C(=O)C(=O)NC1CC1` [Compound A15] was run?
Answer: 0.31 µM

Question: How did the IC50 turn out when `CC(C)C[C@H](NC(=O)O[C@H](c1ccccc1)C(F)(F)c1cccc(C(C)C)c1)C(=O)N[C@@H](C[C@@H]1CCNC1=O)C(=O)C(=O)NC1CC1` [Compound A194] was run?
Answer: 0.005 µM

Question: With `CCCC[C@H](NC(=O)OC(c1ccc(F)cc1)C1(c2cccc(Cl)c2)CC1)C(=O)N[C@H](C=O)C[C@@H]1CCNC1=O` (stereo partly shown) [Compound A91] as the compound, how does the IC50 read?
Answer: 0.01 µM

Question: Which IC50 does the source give for `CCCC[C@H](NC(=O)O[C@H](c1ccccc1)C(F)(F)c1cccc(Cl)c1)C(=O)N[C@@H](C[C@@H]1CCNC1=O)C(=O)C(=O)NC1CC1` [Compound A137] here?
Answer: 0.0005 µM

Question: Which IC50 does the source give for `O=C[C@H](C[C@@H]1CCNC1=O)NC(=O)[C@H](CCCF)NC(=O)OC(c1ccccc1)C(F)(F)c1cccc(Cl)c1` (stereo partly shown) [Compound A219] here?
Answer: 0.16 µM

Question: How did the IC50 turn out when `CC(C)C[C@H](NC(=O)O[C@H](c1ccc(F)cc1)C(F)(F)c1cccc(Cl)c1)C(=O)N[C@H](C=O)C[C@@H]1CCNC1=O` [Compound A149] was run?
Answer: 0.0001 µM

Question: Which IC50 does the source give for `CCNC(=O)C(=O)[C@H](C[C@@H]1CCNC1=O)NC(=O)[C@H](Cc1ccc(Cl)cc1)NC(=O)OC(c1ccccc1)C(F)(F)c1cccc(Cl)c1` (stereo partly drawn) [Compound A263, 2-(3-chlorophenyl)-2,2-difluoro-1-phenylethyl ((S)-3-(4-chlorophenyl)-1-(((S)-4-(ethylamino)-3,4-dioxo-1-((S)-2-oxopyrrolidin-3-yl)butan-2-yl)amino)-1-oxopropan-2-yl)carbamate] here?
Answer: 7.02 µM
